This assay concerns the target FadD17 (Rv3506) (Mycobacterium tuberculosis, UniProt O53551).

FadD17 (Rv3506), sequence (O53551 whole entry): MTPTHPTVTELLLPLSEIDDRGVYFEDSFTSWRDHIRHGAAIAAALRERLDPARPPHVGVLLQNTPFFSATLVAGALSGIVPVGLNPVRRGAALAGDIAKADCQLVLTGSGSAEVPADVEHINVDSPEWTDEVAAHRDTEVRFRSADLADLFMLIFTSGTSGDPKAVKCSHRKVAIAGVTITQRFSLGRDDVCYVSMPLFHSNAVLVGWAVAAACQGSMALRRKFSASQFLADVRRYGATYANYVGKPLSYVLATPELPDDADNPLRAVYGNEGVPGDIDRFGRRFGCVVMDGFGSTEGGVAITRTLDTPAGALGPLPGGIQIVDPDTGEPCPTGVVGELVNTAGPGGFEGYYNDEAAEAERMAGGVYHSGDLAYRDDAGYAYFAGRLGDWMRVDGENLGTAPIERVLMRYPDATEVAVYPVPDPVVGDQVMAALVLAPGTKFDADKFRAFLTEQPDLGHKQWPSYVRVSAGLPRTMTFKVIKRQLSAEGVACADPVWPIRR

With `C[C@H](/C=C/C(=O)O)[C@H]1CC[C@H]2[C@@H]3CCC4=CC(=O)CC[C@]4(C)[C@H]3CC[C@]12C` [3-OCDO-acid], the “preparative CoA ligation, HPLC” value is given as 3-OCDO-CoA was then synthesized enzymatically from the 3-OCDO-acid using the steroid-CoA ligase FadD17.

For the origin of these results see publication PMC7745731 (ACS infectious diseases, 2020).
